Source: ChEMBL document CHEMBL1121985, “3'-Hydroxy- and (+/-)-3',11-dihydroxy-delta 9-tetrahydrocannabinol: biologically active metabolites of delta 9-tetrahydrocannabinol” (1982)

Assays:
Canis familiaris [1] = test: Cardiovascular effect for percentage change in blood pressure in anesthetized dogs after 1 mg/kg iv dose; assay type: functional, Canis lupus familiaris
Mus musculus [2] = test: Tested for the ability to alter the spontaneous activity in mice at 0.1 mg/kg; assay type: functional
Mus musculus [3] = test: Tested for the ability to alter the spontaneous activity in mice at 10 mg/kg; assay type: functional
Mus musculus [4] = test: Tested for the ability to change in rectal temperature in mice at 1 mg/kg; assay type: functional
Mus musculus [5] = test: Tested for the ability to change in rectal temperature in mice at 0.1 mg/kg; assay type: functional
Canis familiaris [6] = test: Tested for Maximal behavioral effect(overt behavior) in dogs, activity is expressed as av score at a dose of 0.1 mg/kg; assay type: functional, Canis lupus familiaris
Mus musculus [7] = test: Tested for the ability to alter the spontaneous activity in mice at 1 mg/kg; assay type: functional
Mus musculus [8] = test: Tested for the ability to alter the spontaneous activity in mice at 3 mg/kg; assay type: functional
Canis familiaris [9] = test: Cardiovascular effect for percentage change in heart rate in anesthetized dogs after 1 mg/kg iv dose; assay type: functional, Canis lupus familiaris
Mus musculus [10] = test: Tested for the ability to change in rectal temperature in mice at 3 mg/kg; assay type: functional
Mus musculus [11] = test: Tested for the ability to change in rectal temperature in mice at 0.3 mg/kg; assay type: functional
Mus musculus [12] = test: Tested for the ability to alter the spontaneous activity in mice at 0.3 mg/kg; assay type: functional
Canis familiaris [13] = test: Tested for Maximal behavioral effect(overt behavior) in dogs, activity is expressed as av score at a dose of 0.05 mg/kg; assay type: functional, Canis lupus familiaris
Mus musculus [14] = test: Tested for the ability to change in rectal temperature in mice at 10 mg/kg; assay type: functional
Canis familiaris [15] = test: Tested for Maximal behavioral effect(overt behavior) in dogs, activity is expressed as av score at a dose of 0.2 mg/kg; assay type: functional, Canis lupus familiaris
Mus musculus [16] = test: Tested for the ability to change in rectal temperature in mice at 6 mg/kg; assay type: functional
Mus musculus [17] = test: Tested for the ability to change in rectal temperature in mice at 30 mg/kg; assay type: functional
Canis familiaris [18] = test: Tested for Maximal behavioral effect(overt behavior) in dogs, activity is expressed as av score at a dose of 0.5 mg/kg; assay type: functional, Canis lupus familiaris
Mus musculus [19] = test: Tested for the ability to alter the spontaneous activity in mice at 6 mg/kg; assay type: functional
Mus musculus [20] = test: Tested for the ability to alter the spontaneous activity in mice at 30 mg/kg; assay type: functional
Mus musculus [21] = test: Tested for the ability to change in rectal temperature in mice a 3 mg/kg; assay type: functional
Mus musculus [22] = test: Tested for the ability to alter the spontaneous activity in mice at 7.5 mg/kg; assay type: functional
Mus musculus [23] = test: Tested for the ability to change in rectal temperature in mice at 2.5 mg/kg; assay type: functional
Mus musculus [24] = test: Tested for the ability to change in rectal temperature in mice at 10.0 mg/kg; assay type: functional
Mus musculus [25] = test: Tested for the ability to alter the spontaneous activity in mice at 5.0 mg/kg; assay type: functional
Mus musculus [26] = test: Tested for the ability to alter the spontaneous activity in mice at 2.5 mg/kg; assay type: functional
Mus musculus [27] = test: Tested for the ability to change in rectal temperature in mice at 5.0 mg/kg; assay type: functional
Canis familiaris [28] = test: Tested for Maximal behavioral effect(overt behavior) in dogs, activity is expressed as av score at a dose of 0.4 mg/kg; assay type: functional, Canis lupus familiaris
Mus musculus [29] = test: Tested for the ability to change in rectal temperature in mice at 7.5 mg/kg; assay type: functional
Mus musculus [30] = test: Tested for the ability to alter the spontaneous activity in mice at 10.0 mg/kg; assay type: functional

With `CCC(O)CCc1cc(O)c2c(c1)OC(C)(C)[C@@H]1CCC(C)=CC21` (stereo partly drawn) the Average score (Canis familiaris [1]) was -45%, the Activity (Mus musculus [2]) was 108 and the Activity (Mus musculus [3]) was 7. It also gave a Change in temparature (Mus musculus [4]) of -2.8 °C, a Change in temparature (Mus musculus [5]) of -0.4 °C and an Average score (Canis familiaris [6]) of 2. It also gave an Activity (Mus musculus [7]) of 27, an Activity (Mus musculus [8]) of 13 and a Change (Canis familiaris [9]) of -12%. For the same molecule, the Change in temparature (Mus musculus [10]) was -4.1 °C, the Change in temparature (Mus musculus [11]) was -1.3 °C and the Activity (Mus musculus [12]) was 86. The Average score (Canis familiaris [13]) was 1, the Change in temparature (Mus musculus [14]) was -7.6 °C and the Average score (Canis familiaris [15]) was 4.5.
Work on `CCC(O)CCc1cc(O)c2c(c1)OC(C)(C)[C@@H]1CCC(CO)=CC21` (stereo partly drawn) yielded an Activity (Mus musculus [3]) of 33, a Change in temparature (Mus musculus [16]) of -0.2 °C and a Change in temparature (Mus musculus [17]) of -4.3 °C. The Activity (Mus musculus [8]) was 81, the Average score (Canis familiaris [18]) was 3 and the Activity (Mus musculus [19]) was 59. For the same molecule, the Change in temparature (Mus musculus [14]) was -3 °C, the Activity (Mus musculus [20]) was 26 and the Change in temparature (Mus musculus [21]) was -0.4 °C. The Average score (Canis familiaris [15]) was 1.
In the case of `CCCCCc1cc(O)c2c(c1)OC(C)(C)[C@@H]1CCC(C)=C[C@@H]21` [DRONABINOL], the Change (Canis familiaris [1]) is reported as -46%, the Activity (Mus musculus [22]) is reported as 17 and the Change in temparature (Mus musculus [23]) is reported as -2.6 °C. It also gave an Average score (Canis familiaris [6]) of 0, a Change (Canis familiaris [9]) of -39% and a Change in temparature (Mus musculus [24]) of -4.2 °C. The Activity (Mus musculus [25]) was 20, the Activity (Mus musculus [26]) was 59 and the Change in temparature (Mus musculus [27]) was -3.6 °C. The Average score (Canis familiaris [28]) was 4, the Change in temparature (Mus musculus [29]) was -3.8 °C and the Activity (Mus musculus [30]) was 6. The Average score (Canis familiaris [15]) was 3.
